Data published in patent US9403747B2, “Methods and compositions for treating leukemia” (Golden Biotechnology Corporation, priority 2013, dated 2016).

Legend:
[1] = tested on: Ras; assay: Immunoblot of unprocessed and processed Ras in cancer cell lines; type: cell-based, human; conditions: H838 cells, 24 h
Experimental: FIG. 2A-C show illustrative effective results of the exemplary Compound 1 inhibiting Ras processing in cancer cell lines. (2A) A549 and H838 cells were treated with different concentrations of Compound 1 and grown under serum (10% FBS) or serum-free (no FBS) conditions for 24 h. (2B) H838, (2C) HepG2 and K562 cells were treated with different concentrations of Compound 1 and grown under serum-free (no FBS) conditions for 24 h. Whole cell lysates were then immunoblotted with a Ras antibody. A duplicate membrane was probed with a GAPDH antibody. The relative expression level of unprocessed to processed Ras was quantified by densitometry. The experiments were conducted three times. […]
FIG. 3A-C show illustrative effective results of Compound 1 inhibiting the prenylation activity of farnesyltransferase in vitro and competes with FPP within cells. […] The relative expression level of unprocessed to processed Ras was quantified by densitometry. […]
Sixty micrograms of total protein lysates measured using a Bradford assay (Sigma-Aldrich, St. Louis, Mo., USA) were resolved on 12.5% SDS-polyacrylamide gels. […] Secondary antibodies were conjugated to horseradish peroxidase, which was detected using a 3,3′-diaminobenzidine substrate kit (Vector Laboratories, Burlingame, Calif.). The immunoreactive bands were quantified by densitometry using Image-Pro Plus software (Media Cybernetics, Silver Spring, Md.). […]

[2] = tested on: THP-1 xenograft; assay: THP-1 leukemia xenograft model; type: in vivo, CB.17 SCID mice; conditions: 120 mg/kg PO twice per day, 5 days per week, 4 weeks
Experimental: Six to seven weeks old male CB.17 SCID mice were purchased from BioLasco Taiwan Co., LTD. and quarantined for one week. During experiment period, 5 mice will be housed in one cage. All animals will be hosted in the Da-Hu animal facility in a 12-h light/12-h dark cycle at 19-25° C. Animals have free access to rodent pellet food and water ad libitum. The experimental protocol of animal study was reviewed and approved by the Institutional Animal Care and Use Committee, DCB. Compound 1 was diluted in olive oil to final concentrations of 12 mg/mL.
Tumor cell line: THP-1 cells (leukemia) were cultured in RPMI-1640 medium or DMEM medium which supplemented with 10% heat inactivated fetal bovine serum. The cells were cultured in tissue culture flasks in a humidified incubator at 37° C., in an atmosphere of 5% CO2 and 95% air.
The human cancer cells used for implantation were harvested during log phase growth and resuspended in phosphate buffered saline to a concentration containing 2×10^7 cells/mL of THP-1, in 0.1 mL of a 50% Matrigel solution (BD Biosciences, MA, USA). […] Volume was calculated using the formula: Tumor Volume=(w^2×l)/2 where w=width and l=length in diameter (mm) of the tumor. […]
Tumors were measured twice per week using calipers. […] The body weight change was calculated as the percentage increase in body weight compared to the initial body weight. […]

[3] = tested on: H838; assay: CCK-8 cell viability assay, H838; type: cell-based; conditions: Homo sapiens, NCI-H838, 48 h, 48 h treatment; means ± S.E.M.
Experimental: Human hepatoma (HepG2, Hep3B), human lung adenocarcinoma (A549, H838), and human myelogenous leukemia (K562) cell lines were obtained from American Type Culture Collection (Rockville, Md., USA). Human prostate cancer cell lines (LNCaP and DU145), human breast carcinoma (MCF-7), human bladder carcinoma (TSGH 8301) and human pancreas adenocarcinoma (BxPC-3) were obtained from BCRC (Bioresource Collection and Research Center, Hsinchu, Taiwan). HepG2, DU145 and MCF-7 cell lines were cultured in Minimum Essential Medium Alpha (Invitrogen/Gibco BRL, Grand Island, N.Y., USA). A549 cells were cultured in Dulbecco's modified Eagle's medium (Invitrogen/Gibco BRL). […]
Cell viability was measured using Cell Counting Kit-8 (CCK-8, Enzo Life Sciences, Farmingdale, N.Y.). […] The concentration of formazan was measured with a spectrophotometer at an absorbance wavelength of 450 nm. Cell viability was expressed as a percentage of the corresponding control.
To determine whether the cytotoxic effects of Compound 1 correlate with the presence of Ras mutations, cell lines derived from human lung cancer (A549 and H838), liver cancer (HepG2 and Hep3B), and leukemia (K562 and THP-1) with wild-type Ras (H838, Hep3B, and K562) or mutant Ras (A549, HepG2, and THP-1) were used. Cell viability was measured after 48 h of Compound 1 treatment.

**Q.** With `CC(C)=CCC/C(C)=C/CC/C(C)=C/COP(=O)(O)OP(=O)(O)O` [FPP] as the molecule, how does the “Ras processing, agent alone” value [1] read?
**A.** The value was “potentiated Ras processing”.

**Q.** What about the “FPP concentration neutralizing the effect of Compound 1 on Ras processing” value ([1]; competition assay) of the same molecule?
**A.** The value was ≥ 10 µM.

**Q.** `COC1=C(OC)C(O)C(C/C=C(\C)CC/C=C(\C)CCC=C(C)C)C(C)C1=O` (stereo not shown) [Compound 1, 4-hydroxy-2,3-dimethoxy-6-methyl-5-(3,7,11-trimethyldodeca-2,6,10-trienyl)cyclohex-2-enone] was tested. Which body weight [2] did it give?
**A.** Its body weight is “almost no body weight changes”.

**Q.** `COC1=C(OC)C(=O)C(C/C=C(\C)CC/C=C(\C)CCC=C(C)C)=C(C)C1=O` [Compound 25, 2,3-dimethoxy-5-methyl-6-((2E,6E)-3,7,11-trimethyldodeca-2,6,10-trienyl)cyclohexa-2,5-diene-1,4-dione] was tested. Which IC50 [3] did it give?
**A.** The IC50 was 22.6 ± 6.45 µM.
